{
  "source": "paper PMC9898036",
  "about": "“VIP152 is a selective CDK9 inhibitor with pre-clinical in vitro and in vivo efficacy in chronic lymphocytic leukemia” (Leukemia, 2022)",
  "key": {"[1]": {"target": "Nicotinic Acetylcholine α1, Bungarotoxin (Homo sapiens, UniProt P02708+P07510+Q07001)", "sequence (Q07001 22-517)": "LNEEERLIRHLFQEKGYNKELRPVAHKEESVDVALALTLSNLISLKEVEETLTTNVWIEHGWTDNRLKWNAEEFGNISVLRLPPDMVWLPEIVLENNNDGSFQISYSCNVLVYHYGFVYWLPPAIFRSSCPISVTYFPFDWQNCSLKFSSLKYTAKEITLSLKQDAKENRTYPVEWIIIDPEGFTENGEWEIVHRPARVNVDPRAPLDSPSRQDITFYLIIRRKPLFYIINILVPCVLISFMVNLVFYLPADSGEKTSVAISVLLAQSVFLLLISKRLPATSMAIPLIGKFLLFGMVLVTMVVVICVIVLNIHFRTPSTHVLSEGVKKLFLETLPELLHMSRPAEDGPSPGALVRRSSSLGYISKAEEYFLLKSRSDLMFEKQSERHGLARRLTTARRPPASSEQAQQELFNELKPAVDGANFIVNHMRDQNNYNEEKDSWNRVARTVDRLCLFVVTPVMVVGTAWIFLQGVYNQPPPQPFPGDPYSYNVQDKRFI", "sequence (P07510 23-517)": "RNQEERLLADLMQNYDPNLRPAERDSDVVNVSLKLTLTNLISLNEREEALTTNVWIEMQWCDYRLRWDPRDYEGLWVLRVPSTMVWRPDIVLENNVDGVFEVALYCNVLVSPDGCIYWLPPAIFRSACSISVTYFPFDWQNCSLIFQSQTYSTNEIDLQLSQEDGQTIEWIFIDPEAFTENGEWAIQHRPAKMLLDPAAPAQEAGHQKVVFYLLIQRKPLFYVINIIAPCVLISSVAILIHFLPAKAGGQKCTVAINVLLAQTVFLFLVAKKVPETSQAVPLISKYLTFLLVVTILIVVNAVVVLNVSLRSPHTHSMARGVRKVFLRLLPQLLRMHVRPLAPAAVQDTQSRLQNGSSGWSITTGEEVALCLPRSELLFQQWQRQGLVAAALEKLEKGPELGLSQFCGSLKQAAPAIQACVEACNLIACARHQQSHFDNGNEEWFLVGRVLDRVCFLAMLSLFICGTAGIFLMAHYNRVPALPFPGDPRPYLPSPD", "sequence (P11230 24-501, further chain)": "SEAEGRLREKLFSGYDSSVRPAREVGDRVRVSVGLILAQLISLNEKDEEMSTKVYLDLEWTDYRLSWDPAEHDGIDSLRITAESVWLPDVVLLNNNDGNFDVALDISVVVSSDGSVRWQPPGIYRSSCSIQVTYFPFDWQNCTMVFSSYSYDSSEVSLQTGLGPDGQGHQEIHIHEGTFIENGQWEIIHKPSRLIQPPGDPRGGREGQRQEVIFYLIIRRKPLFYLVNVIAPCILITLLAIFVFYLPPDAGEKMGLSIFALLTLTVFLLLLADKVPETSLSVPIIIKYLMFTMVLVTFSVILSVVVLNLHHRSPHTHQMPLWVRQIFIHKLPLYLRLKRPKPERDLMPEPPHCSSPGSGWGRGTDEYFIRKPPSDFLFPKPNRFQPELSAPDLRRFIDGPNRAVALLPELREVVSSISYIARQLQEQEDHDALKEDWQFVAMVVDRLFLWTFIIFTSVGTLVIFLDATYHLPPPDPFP", "sequence (P02708 21-457)": "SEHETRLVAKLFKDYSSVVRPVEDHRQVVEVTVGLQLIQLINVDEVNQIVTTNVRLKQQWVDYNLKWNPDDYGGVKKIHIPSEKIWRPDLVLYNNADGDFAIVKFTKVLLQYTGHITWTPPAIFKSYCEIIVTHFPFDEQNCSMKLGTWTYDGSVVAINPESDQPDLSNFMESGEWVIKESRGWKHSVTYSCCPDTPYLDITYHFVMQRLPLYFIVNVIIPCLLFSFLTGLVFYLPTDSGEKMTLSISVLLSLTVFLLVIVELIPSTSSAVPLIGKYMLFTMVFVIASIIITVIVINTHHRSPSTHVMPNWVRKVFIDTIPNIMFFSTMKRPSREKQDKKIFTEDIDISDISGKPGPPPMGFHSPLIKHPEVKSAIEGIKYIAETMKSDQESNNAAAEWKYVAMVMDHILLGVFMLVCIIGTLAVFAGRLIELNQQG", "experiment": "Eurofins Diversity Panel", "type": "binding", "conditions": "read-out: % Inh."}, "[2]": {"target": "Adrenergic α1A (Rattus norvegicus, UniProt P43140)", "experiment": "Eurofins Diversity Panel", "type": "binding", "conditions": "Conc. 10 μM"}, "[3]": {"target": "ICK (Homo sapiens, UniProt Q9UPZ9)", "experiment": "KINOMEscan: ICK", "type": "binding", "conditions": "1000 nM, read-out: Percent Control"}, "[4]": {"target": "BMX (Homo sapiens, UniProt P51813)", "experiment": "KINOMEscan: BMX", "type": "binding", "conditions": "1000 nM, read-out: Percent Control"}, "[5]": {"target": "PFCDPK1(P.falciparum) (Plasmodium falciparum, UniProt P62344)", "experiment": "DiscoverX KINOMEscan kinase profiling", "type": "binding", "conditions": "kinase PFCDPK1(P.falciparum) (Entrez CDPK1); compound concentration 1000 nM; read-out: Percent Control"}, "[6]": {"target": "AURKA (Homo sapiens, UniProt O14965)", "experiment": "KINOMEscan: AURKA", "type": "binding", "conditions": "1000 nM, read-out: Percent Control"}, "[7]": {"target": "PFPK5(P.falciparum) (Plasmodium falciparum, UniProt P61075)", "sequence (P61075 whole entry)": "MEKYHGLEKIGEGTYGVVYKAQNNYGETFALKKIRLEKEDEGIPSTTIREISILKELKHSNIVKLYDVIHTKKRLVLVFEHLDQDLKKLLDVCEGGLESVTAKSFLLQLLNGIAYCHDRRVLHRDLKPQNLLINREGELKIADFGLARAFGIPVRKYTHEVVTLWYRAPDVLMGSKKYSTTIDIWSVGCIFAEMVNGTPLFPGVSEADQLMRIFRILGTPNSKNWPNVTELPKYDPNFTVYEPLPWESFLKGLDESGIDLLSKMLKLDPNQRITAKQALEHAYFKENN", "experiment": "DiscoverX KINOMEscan kinase profiling: PFPK5(P.falciparum)", "type": "binding", "conditions": "PFPK5(P.falciparum) (Entrez MAL13P1.279); 100 nM; read-out: Percent Control"}, "[8]": {"target": "GSK3α (Homo sapiens, UniProt P49840)", "sequence (P49840 whole entry)": "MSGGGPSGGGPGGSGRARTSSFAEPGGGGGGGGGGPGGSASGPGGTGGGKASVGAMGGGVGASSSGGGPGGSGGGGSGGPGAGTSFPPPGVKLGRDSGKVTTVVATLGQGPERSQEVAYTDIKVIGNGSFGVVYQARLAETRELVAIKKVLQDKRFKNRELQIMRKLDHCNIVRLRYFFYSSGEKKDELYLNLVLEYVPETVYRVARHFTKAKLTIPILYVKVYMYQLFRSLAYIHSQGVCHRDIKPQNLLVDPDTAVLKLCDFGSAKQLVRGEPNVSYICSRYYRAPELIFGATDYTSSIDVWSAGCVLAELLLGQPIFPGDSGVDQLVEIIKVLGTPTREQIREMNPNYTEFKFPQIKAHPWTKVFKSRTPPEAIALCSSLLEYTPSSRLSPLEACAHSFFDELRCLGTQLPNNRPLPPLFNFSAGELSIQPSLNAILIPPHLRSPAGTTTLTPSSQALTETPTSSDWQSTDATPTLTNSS", "experiment": "NanoBRET target engagement assay (HEK293)", "type": "cell-based"}, "[9]": {"target": "GAK (Homo sapiens, UniProt O14976)", "experiment": "KINOMEscan: GAK", "type": "binding", "conditions": "1000 nM, read-out: Percent Control"}, "[10]": {"target": "KIT(V559D,T670I) (Homo sapiens, UniProt P10721, T670I/V559D)", "experiment": "KINOMEscan: KIT(V559D,T670I)", "type": "binding", "conditions": "1000 nM, read-out: Percent Control"}, "[11]": {"target": "ACVR2A (Homo sapiens, UniProt P27037)", "sequence (P27037 20-513)": "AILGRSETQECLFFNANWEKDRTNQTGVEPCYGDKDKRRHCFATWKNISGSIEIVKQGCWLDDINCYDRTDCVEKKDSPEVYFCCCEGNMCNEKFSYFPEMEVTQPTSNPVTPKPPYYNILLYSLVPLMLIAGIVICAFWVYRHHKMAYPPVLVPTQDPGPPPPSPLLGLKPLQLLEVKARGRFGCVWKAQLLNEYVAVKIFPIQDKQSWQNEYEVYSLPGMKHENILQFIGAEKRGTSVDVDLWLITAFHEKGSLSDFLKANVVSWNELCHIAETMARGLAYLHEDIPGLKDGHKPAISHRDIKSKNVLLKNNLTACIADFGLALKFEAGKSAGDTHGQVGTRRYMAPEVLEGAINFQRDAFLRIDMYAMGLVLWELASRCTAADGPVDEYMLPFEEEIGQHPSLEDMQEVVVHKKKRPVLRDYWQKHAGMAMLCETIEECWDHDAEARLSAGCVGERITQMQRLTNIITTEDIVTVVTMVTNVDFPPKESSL", "experiment": "KINOMEscan: ACVR2A", "type": "binding", "conditions": "1000 nM, read-out: Percent Control"}, "[12]": {"target": "MEK2 (Homo sapiens, UniProt P36507)", "experiment": "KINOMEscan: MEK2", "type": "binding", "conditions": "1000 nM, read-out: Percent Control"}, "[13]": {"target": "Glutamate, NMDA, Glycine (Rattus norvegicus, UniProt P35439)", "experiment": "Eurofins Diversity Panel", "type": "binding", "conditions": "Conc. 10 μM"}, "[14]": {"target": "T1, CDK9 in complex with Cyclin K (Homo sapiens, UniProt P50750)", "T1 construct": "host or cells: HEK293", "T1 sequence (P50750 whole entry)": "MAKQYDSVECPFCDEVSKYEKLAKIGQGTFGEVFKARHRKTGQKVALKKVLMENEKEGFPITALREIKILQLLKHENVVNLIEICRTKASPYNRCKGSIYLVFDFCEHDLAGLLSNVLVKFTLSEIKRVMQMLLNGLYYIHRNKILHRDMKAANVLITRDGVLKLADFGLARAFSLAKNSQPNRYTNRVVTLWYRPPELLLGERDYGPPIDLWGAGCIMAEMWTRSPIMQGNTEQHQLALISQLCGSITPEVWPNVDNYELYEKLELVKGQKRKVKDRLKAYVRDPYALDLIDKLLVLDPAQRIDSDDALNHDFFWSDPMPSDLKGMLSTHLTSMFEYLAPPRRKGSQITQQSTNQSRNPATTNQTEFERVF", "T1 sequence (O75909 whole entry partner)": "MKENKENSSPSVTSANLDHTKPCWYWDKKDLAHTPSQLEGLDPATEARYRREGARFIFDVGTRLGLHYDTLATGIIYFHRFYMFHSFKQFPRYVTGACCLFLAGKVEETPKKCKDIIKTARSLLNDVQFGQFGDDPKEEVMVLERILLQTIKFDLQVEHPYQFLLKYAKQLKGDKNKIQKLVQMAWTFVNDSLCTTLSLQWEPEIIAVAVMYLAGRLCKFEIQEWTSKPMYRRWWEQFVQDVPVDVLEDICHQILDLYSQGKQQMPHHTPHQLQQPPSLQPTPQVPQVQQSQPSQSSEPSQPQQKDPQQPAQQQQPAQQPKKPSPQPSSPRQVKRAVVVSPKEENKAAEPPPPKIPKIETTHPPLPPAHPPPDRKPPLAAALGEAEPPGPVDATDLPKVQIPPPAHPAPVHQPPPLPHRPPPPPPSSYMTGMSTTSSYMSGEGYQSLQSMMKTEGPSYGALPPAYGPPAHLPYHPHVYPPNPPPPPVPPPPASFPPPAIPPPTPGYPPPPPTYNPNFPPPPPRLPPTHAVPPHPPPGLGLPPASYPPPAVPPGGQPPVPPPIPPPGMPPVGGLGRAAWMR", "experiment": "HotSpot radiometric kinase assay", "type": "biochemical", "conditions": "10-dose series from 0.5 nM to 10 µM; vs dinaciclib, KB-0742, atuveciclib", "method": "We next compared VIP152 to other CDK inhibitors currently in development. […] The compounds were tested in a 10-dose series from 0.5 nM to 10 µM against CDK9 in complex with Cyclin T1/T2/K, CDK7/Cyclin H, and GSK3α/β. […]\nHotSpot Kinase Assay Protocol\nCompounds tested via HotSpot Kinase Assay were sent to ReactionBio for the experiment. The […]\nKinase substrate was added to reaction buffer (20 mM Hepes (pH 7.5), 10 mM MgCl2, 1 mM EGTA, 0.01% Brij35, 0.02 mg/ml BSA, 0.1 mM Na3VO4, 2 mM DTT, 1% DMSO). Cofactors and kinases were gently added to the reaction buffer. Compounds to be tested were dissolved in 100% DMSO and were delivered into the kinase reaction mixture by Acoustic technology (Echo550; nanoliter range) and incubated for 20 min at room temperature. 32P-ATP was delivered into the reaction mixture and the reaction was allowed to proceed for 2 hours. Kinase activity was detected by P81 filter-binding method."}, "[15]": {"target": "BMPR1A (Homo sapiens, UniProt P36894)", "experiment": "KINOMEscan: BMPR1A", "type": "binding", "conditions": "1000 nM, read-out: Percent Control"}, "[16]": {"target": "Opiate μ(OP3, MOP) (Homo sapiens, UniProt P35372)", "experiment": "Eurofins Diversity Panel", "type": "binding", "conditions": "hum, Conc. 10 μM"}, "[17]": {"target": "TBK1 (Homo sapiens, UniProt Q9UHD2)", "experiment": "KINOMEscan: TBK1", "type": "binding", "conditions": "100 nM, read-out: Percent Control"}, "[18]": {"target": "DAPK3 (Homo sapiens, UniProt O43293)", "experiment": "KINOMEscan: DAPK3", "type": "binding", "conditions": "1000 nM, read-out: Percent Control"}, "[19]": {"target": "HIPK3 (Homo sapiens, UniProt Q9H422)", "experiment": "KINOMEscan: HIPK3", "type": "binding", "conditions": "1000 nM, read-out: Percent Control"}, "[20]": {"target": "RSK4(Kin.Dom.2-C-terminal) (Homo sapiens, UniProt Q9UK32)", "experiment": "KINOMEscan: RSK4(Kin.Dom.2-C-terminal)", "type": "binding", "conditions": "100 nM, read-out: Percent Control"}, "[21]": {"target": "SNRK (Homo sapiens, UniProt Q9NRH2)", "sequence (Q9NRH2 whole entry)": "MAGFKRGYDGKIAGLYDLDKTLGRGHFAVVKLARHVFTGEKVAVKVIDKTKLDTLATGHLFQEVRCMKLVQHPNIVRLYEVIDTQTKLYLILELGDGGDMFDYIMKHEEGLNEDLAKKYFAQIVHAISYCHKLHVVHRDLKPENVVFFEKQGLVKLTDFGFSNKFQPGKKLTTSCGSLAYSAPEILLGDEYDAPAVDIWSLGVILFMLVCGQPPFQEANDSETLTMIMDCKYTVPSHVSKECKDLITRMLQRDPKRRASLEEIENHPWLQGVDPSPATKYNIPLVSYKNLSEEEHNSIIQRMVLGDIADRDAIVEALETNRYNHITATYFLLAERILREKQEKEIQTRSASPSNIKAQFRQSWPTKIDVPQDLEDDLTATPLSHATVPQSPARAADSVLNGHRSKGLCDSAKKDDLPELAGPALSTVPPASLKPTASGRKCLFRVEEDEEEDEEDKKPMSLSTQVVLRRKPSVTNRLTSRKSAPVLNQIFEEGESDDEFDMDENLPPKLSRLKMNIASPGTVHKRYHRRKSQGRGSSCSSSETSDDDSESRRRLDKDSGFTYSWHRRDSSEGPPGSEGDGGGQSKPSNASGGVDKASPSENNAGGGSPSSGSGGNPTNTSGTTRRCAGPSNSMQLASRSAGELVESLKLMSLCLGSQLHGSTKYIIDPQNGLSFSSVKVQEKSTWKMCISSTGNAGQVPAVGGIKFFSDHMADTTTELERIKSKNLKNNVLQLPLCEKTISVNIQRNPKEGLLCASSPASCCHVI", "experiment": "KINOMEscan: SNRK", "type": "binding", "conditions": "100 nM, read-out: Percent Control"}, "[22]": {"target": "CAMK1G (Homo sapiens, UniProt Q96NX5)", "experiment": "KINOMEscan: CAMK1G", "type": "binding", "conditions": "1000 nM, read-out: Percent Control"}, "[23]": {"target": "FES (Homo sapiens, UniProt P07332)", "experiment": "KINOMEscan: FES", "type": "binding", "conditions": "1000 nM, read-out: Percent Control"}, "[24]": {"target": "DLK (Homo sapiens, UniProt Q12852)", "experiment": "KINOMEscan: DLK", "type": "binding", "conditions": "1000 nM, read-out: Percent Control"}, "[25]": {"target": "DRAK2 (Homo sapiens, UniProt O94768)", "experiment": "KINOMEscan: DRAK2", "type": "binding", "conditions": "1000 nM, read-out: Percent Control"}, "[26]": {"target": "CLK3 (Homo sapiens, UniProt P49761)", "experiment": "KINOMEscan: CLK3", "type": "binding", "conditions": "1000 nM, read-out: Percent Control"}, "[27]": {"target": "TLK1 (Homo sapiens, UniProt Q9UKI8)", "experiment": "KINOMEscan: TLK1", "type": "binding", "conditions": "100 nM, read-out: Percent Control"}, "[28]": {"test_system": "Calcium Channel L-Type Dihydropyridine", "experiment": "Eurofins Diversity Panel", "type": "binding", "conditions": "rat, Conc. 10 μM"}, "[29]": {"test_system": "MEC-1", "experiment": "MTS proliferation assay", "type": "cell-based", "conditions": "Homo sapiens"}, "[30]": {"target": "SRMS (Homo sapiens, UniProt Q9H3Y6)", "experiment": "KINOMEscan: SRMS", "type": "binding", "conditions": "100 nM, read-out: Percent Control"}, "[31]": {"target": "Muscarinic M1 (Homo sapiens, UniProt P11229)", "experiment": "Eurofins Diversity Panel", "type": "binding", "conditions": "hum, Conc. 10 μM"}, "[32]": {"target": "RIPK2 (Homo sapiens, UniProt O43353)", "experiment": "KINOMEscan: RIPK2", "type": "binding", "conditions": "100 nM, read-out: Percent Control"}, "[33]": {"test_system": "Purinergic P2X", "experiment": "Eurofins Diversity Panel", "type": "binding", "conditions": "rabbit, Conc. 10 μM"}},
  "note": "Read-outs that look alike come from different tables or passages of the source.",
  "data": [
    {"compound": "COc1cc(F)ccc1-c1cc(Nc2cc(CS(C)(=N)=O)ccn2)ncc1F", "note": "(stereo not shown) [VIP152]", "values": [
      {"measurement": "inhibition at 10 µM", "setting": "[1]", "value": 3, "unit": "%"},
      {"measurement": "inhibition at 10 µM", "setting": "[2]", "value": 34, "unit": "%"},
      {"measurement": "remaining binding at 1 µM", "setting": "[3]", "value": 9, "unit": "%"},
      {"measurement": "remaining binding at 1 µM", "setting": "[4]", "value": 3.8, "unit": "%"},
      {"measurement": "remaining binding at 1 µM", "setting": "[5]", "value": 86, "unit": "%"},
      {"measurement": "remaining binding at 1 µM", "setting": "[6]", "value": 41, "unit": "%"},
      {"measurement": "remaining binding at 0.1 µM", "setting": "[7]", "value": 100, "unit": "%"},
      {"measurement": "inhibitory capacity against GSK3α", "setting": "[8]", "value": "Inhibits"},
      {"measurement": "remaining binding at 1 µM", "setting": "[9]", "value": 82, "unit": "%"},
      {"measurement": "remaining binding at 1 µM", "setting": "[10]", "value": 64, "unit": "%"},
      {"measurement": "remaining binding at 1 µM", "setting": "[11]", "value": 75, "unit": "%"},
      {"measurement": "remaining binding at 1 µM", "setting": "[12]", "value": 88, "unit": "%"},
      {"measurement": "inhibition at 10 µM", "setting": "[13]", "value": 12, "unit": "%"},
      {"measurement": "potency versus the other inhibitors tested", "setting": "[14]", "value": "higher potency"},
      {"measurement": "remaining binding at 1 µM", "setting": "[15]", "value": 97, "unit": "%"},
      {"measurement": "inhibition at 10 µM", "setting": "[16]", "value": 8, "unit": "%"},
      {"measurement": "remaining binding at 0.1 µM", "setting": "[17]", "value": 62, "unit": "%"},
      {"measurement": "remaining binding at 1 µM", "setting": "[18]", "value": 91, "unit": "%"},
      {"measurement": "remaining binding at 1 µM", "setting": "[19]", "value": 66, "unit": "%"},
      {"measurement": "remaining binding at 0.1 µM", "setting": "[20]", "value": 100, "unit": "%"},
      {"measurement": "remaining binding at 0.1 µM", "setting": "[21]", "value": 100, "unit": "%"},
      {"measurement": "remaining binding at 1 µM", "setting": "[22]", "value": 89, "unit": "%"},
      {"measurement": "remaining binding at 1 µM", "setting": "[23]", "value": 87, "unit": "%"},
      {"measurement": "remaining binding at 1 µM", "setting": "[24]", "value": 90, "unit": "%"},
      {"measurement": "remaining binding at 1 µM", "setting": "[25]", "value": 100, "unit": "%"},
      {"measurement": "remaining binding at 1 µM", "setting": "[26]", "value": 85, "unit": "%"},
      {"measurement": "remaining binding at 0.1 µM", "setting": "[27]", "value": 98, "unit": "%"},
      {"measurement": "% Inh.", "setting": "[28]", "value": 7, "unit": "%"},
      {"measurement": "IC50", "setting": "[29]; MEC1, 24, 48, and 72 h, read-out: proliferation IC50", "value": "0.15 to 1", "unit": "µM"},
      {"measurement": "IC50", "setting": "[29]; MEC1, two-hour drugging followed by washout, MTS after 72 h, read-out: 50% growth inhibition", "value": 1.7, "unit": "µM"},
      {"measurement": "remaining binding at 0.1 µM", "setting": "[30]", "value": 98, "unit": "%"},
      {"measurement": "inhibition at 10 µM", "setting": "[31]", "value": -10, "unit": "%"},
      {"measurement": "remaining binding at 0.1 µM", "setting": "[32]", "value": 100, "unit": "%"},
      {"measurement": "% Inh.", "setting": "[33]", "value": 11, "unit": "%"}
    ]}
  ]
}
